Reference: patent US8003783B2, “17B-hydroxysteroid dehydrogenase inhibitors” (Sterix Limited, priority 2004, dated 2011)
Several values for one entry are separate records, joined by “and”; a condition that tells them apart may be missing. Equal values may be shown once. Read-outs that look alike come from different tables or passages of the source.

Assays:
[1] = target: T1, 17β-HSD1 (Homo sapiens, UniProt P14061); assay: 17β-HSD Type I activity in T-47D cells (E1→E2); type: cell-based; conditions: T-47D cells, E1→E2; for inhibition at 10 µM: T47D; for IC50: read-out: IC50 (17β-HSD1)
T1 construct: was measured in intact cell monolayers of T47D and MDA-MB-231 breast cancer cells respectively; endogenous in cells; host or cells: T-47D human breast cancer cells
T1 sequence (P14061 1-328): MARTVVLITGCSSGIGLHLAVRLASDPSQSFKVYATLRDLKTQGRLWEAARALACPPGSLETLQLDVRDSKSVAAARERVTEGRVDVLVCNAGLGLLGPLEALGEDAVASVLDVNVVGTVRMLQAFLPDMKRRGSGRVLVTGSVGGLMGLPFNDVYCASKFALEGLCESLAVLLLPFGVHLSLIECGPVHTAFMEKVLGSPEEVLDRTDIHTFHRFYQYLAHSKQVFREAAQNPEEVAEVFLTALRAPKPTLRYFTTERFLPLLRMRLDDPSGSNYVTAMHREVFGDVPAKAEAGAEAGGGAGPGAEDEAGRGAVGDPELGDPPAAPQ

[2] = target: T2, 17β-HSD2 (Homo sapiens, UniProt P37059); assay: 17β-HSD Type II activity in MDA-MB-231 cells (E2→E1); type: cell-based
T2 construct: was measured in intact cell monolayers of T47D and MDA-MB-231 breast cancer cells respectively; endogenous in cells; host or cells: MDA-MB-231 human breast cancer cells
T2 sequence (P37059 1-387): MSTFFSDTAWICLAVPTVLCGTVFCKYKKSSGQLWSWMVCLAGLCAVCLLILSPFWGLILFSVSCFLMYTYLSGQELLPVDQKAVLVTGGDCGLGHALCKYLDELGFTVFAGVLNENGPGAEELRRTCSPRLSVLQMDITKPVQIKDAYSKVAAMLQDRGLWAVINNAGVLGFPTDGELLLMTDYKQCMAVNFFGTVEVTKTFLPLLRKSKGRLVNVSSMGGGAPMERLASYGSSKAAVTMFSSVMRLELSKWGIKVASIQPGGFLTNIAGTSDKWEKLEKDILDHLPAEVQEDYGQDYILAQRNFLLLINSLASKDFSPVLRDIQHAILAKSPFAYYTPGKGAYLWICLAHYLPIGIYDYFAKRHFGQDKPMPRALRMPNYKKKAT

[3] = read-out: % inhibition of 17β-HSD1 @ 10 μM, 10 μM
[4] = MDA-MB-231, read-out: % inhibition of 17β-HSD2 @ 10 μM
[5] = 10 μM, read-out: % inhibition of 17β-HSD1 @ 10 μM
[6] = 10 μM, MDA-MB-231 cells, E2→E1, read-out: % inhibition of 17β-HSD2 @ 10 μM

SMILES | inhibition at 10 µM [1, 3] [%] | IC50 [1] [nM] | inhibition at 10 µM [2, 4] [%] | inhibition at 10 µM [1, 5] [%] | inhibition at 10 µM [2, 6] [%] | % inhibition of 17β-HSD1 @ 10 μM ([1]; 10 μM)
C[C@]12CCC3c4ccc(O)cc4CCC3C1Cc1c2n[nH]c1C(=O)NCc1ccccn1 (some centres unmarked) [compound 915] | 93 | 880 | 9 | – | – | –
CC(C)NC(=O)CC1CC2C3CCc4cc(O)ccc4C3CC[C@]2(C)[C@H]1O (some centres unmarked) [compound 773] | – | – | – | 67 | 11 | –
C[C@]12CCC3c4ccc(O)cc4CCC3C1Cc1cn(CCC#N)nc12 (some centres unmarked) [compound 921] | – | 730 | – | 95 | 44 | –
C[C@]12CCC3c4ccc(O)cc4CCC3C1CC(C(=O)O)C2=O (some centres unmarked) [compound 610] | – | 940 | – | 95 | 1 | –
C[C@]12CCC3c4ccc(O)cc4CCC3C1Cc1cccnc12 (some centres unmarked) [compound 663] | – | – | – | 78 | 34 | –
C[C@]12CCC3c4ccc(O)cc4CCC3C1Cc1c2n[nH]c1C(=O)NCCc1cccnc1 (some centres unmarked) [compound 916] | 98.5 | 300 | 3 | – | – | –
COCCn1cc2c(n1)[C@@]1(C)CCC3c4ccc(O)cc4CCC3C1C2 (some centres unmarked) [compound 808] | – | 530 | – | 95 | 48 | –
Cc1cnc(CNC(=O)c2[nH]nc3c2CC2C4CCc5cc(O)ccc5C4CC[C@]32C)cn1 (some centres unmarked) [compound 896] | 80 | – | 61 | – | – | –
C[C@]12CCC3c4ccc(O)cc4CCC3C1CC(CC(=O)NCCc1ccccn1)C2=O (some centres unmarked) [compound 691] | – | – | – | 58 | 14 | –
CC(C)Cn1cc2c(n1)[C@@]1(C)CCC3c4ccc(O)cc4CCC3C1C2 (some centres unmarked) [compound 812] | 77 | – | 61 | – | – | –
C[C@]12CCC3c4ccc(O)cc4CCC3C1CC(CC(=O)O)[C@@H]2O (some centres unmarked) [compound 603] | – | – | – | 58 | 0 | –
C[C@]12CCC3c4ccc(O)cc4CCC3C1C/C(=C\c1cccs1)[C@@H]2O (some centres unmarked) [compound 507] | – | – | – | 41 | 25 | –
C[C@]12CCC3c4ccc(O)cc4CCC3C1CC(CO)[C@@H]2O (some centres unmarked) [compound 612] | – | – | – | 86 | 17 | –
CC1(C#N)CC2C3CCc4cc(O)ccc4C3CC[C@]2(C)C1=O (some centres unmarked) [compound 924] | – | – | – | 85 | 12 | –
COCCn1ncc2c1[C@@]1(C)CCC3c4ccc(O)cc4CCC3C1C2 (some centres unmarked) [compound 809] | – | – | – | 83 | 55 | –
C[C@]12CCC3c4ccc(O)cc4CCC3C1C/C(=C\c1ccco1)C2=O (some centres unmarked) [compound 474] | – | – | – | 26 | 17 | –
CNC(=O)CC1CC2C3CCc4cc(O)ccc4C3CC[C@]2(C)C1=O (some centres unmarked) [compound 745] | – | 1500 | – | 90 | 3.5 | –
Cn1ncc2c1[C@@]1(C)CCC3c4ccc(O)cc4CCC3C1C2 (some centres unmarked) [compound 786] | 43 | – | 32 | – | – | –
Cn1cccc1CNC(=O)C1CC2C3CCc4cc(O)ccc4C3CC[C@]2(C)[C@H]1O (some centres unmarked) [compound 802] | – | – | – | 86 | -7 | –
C[C@]12CCC3c4ccc(OS(N)(=O)=O)cc4CCC3C1C/C(=N/O)C2=O (some centres unmarked) [compound 337] | – | – | – | 47 | 8 | –
CCO/C=C1/CC2C3CC(=O)c4cc(O)ccc4C3CC[C@]2(C)C1=O (some centres unmarked) [compound 749] | – | – | – | 85 | 8 | –
C[C@]12CCC3c4ccc(O)cc4CCC3C1Cc1c2n[nH]c1C(=O)NCc1cccnc1 (some centres unmarked) [compound 860, 2-Hydroxy-6a-methyl-4b,5,6,6a,8,10,10a,10b,11,12-decahydro-7,8-diaza-pentaleno[2,1-a]phenanthrene-9-carboxylic acid (pyridin-3-ylmethyl)-amide] | – | 780 | – | 92 | 28 | –
COc1cc(/C=C2\CC3C4CCc5cc(OS(N)(=O)=O)ccc5C4CC[C@]3(C)[C@H]2O)cc(OC)c1OC (some centres unmarked) [compound 693] | – | – | – | 13 | 10 | –

SMILES | inhibition at 10 µM [1, 3] [%] | IC50 [1] [nM] | inhibition at 10 µM [2, 4] [%] | inhibition at 10 µM [1, 5] [%] | inhibition at 10 µM [2, 6] [%] | % inhibition of 17β-HSD1 @ 10 μM ([1]; 10 μM)
C[C@]12CCC3c4ccc(O)cc4CCC3C1CC(C(=O)NCc1ccncc1)[C@@H]2O (some centres unmarked) [compound 845] | – | – | – | 87 | 2.5 | –
C[C@]12CCC3c4ccc(O)cc4CCC3C1C/C(=C\c1ccc(C#N)cc1)C2=O (some centres unmarked) [compound 478] | – | – | – | 39 | 18 | –
C[C@]12CCC3c4ccc(O)cc4CCC3C1CC(C#N)[C@@H]2O (some centres unmarked) [compound 561] | – | – | – | 56 | 4 | –
C[C@]12CCC3c4ccc(O)cc4CCC3C1Cc1c2n[nH]c1O (some centres unmarked) [compound 820, 6a-Methyl-4b,5,6,6a,8,10,10a,10b,11,12-decahydro-7,8-diaza-pentaleno[2,1-a]phenanthrene-2,9-diol] | – | – | – | 86 | 7 | –
C[C@]12CCC3c4ccc(O)cc4CCC3C1Cc1c2n[nH]c1C(=O)O (some centres unmarked) [compound 783] | – | – | – | 32 | -6 | –
CC(C)/C=C1\CC2C3CCc4cc(O)ccc4C3CC[C@]2(C)[C@H]1O (some centres unmarked) [compound 614] | – | – | – | 68 | 7 | –
CN(C)CCCNC(=O)CC1CC2C3CCc4cc(O)ccc4C3CC[C@]2(C)C1=O (some centres unmarked) [compound 688] | – | – | – | 36 | 13 | –
C[C@]12CCC3c4ccc(O)cc4CCC3C1CC(C#N)C2=O (some centres unmarked) [compound 207] | – | 10000 | – | 83 | 17 | 71%
COc1cc(/C=C2\CC3C4CCc5cc(O)ccc5C4CC[C@]3(C)[C@H]2O)cc(OC)c1OC (some centres unmarked) [compound 329] | – | – | – | – | 3 | 63% and 33%
CCOC(=O)c1[nH]nc2c1CC1C3CCc4cc(O)ccc4C3CC[C@]21C (some centres unmarked) [compound 782] | – | 1850 | – | 94 | 7 | –
CN1CCN(C(=O)C2CC3C4CCc5cc(O)ccc5C4CC[C@]3(C)[C@H]2O)CC1 (some centres unmarked) [compound 799] | – | – | – | 74 | -16 | –
C[C@]12CCC3c4ccc(O)cc4CCC3C1CC(C(=O)NCc1ccco1)[C@@H]2O (some centres unmarked) [compound 679] | – | – | – | 87 | -9 | –
CC(C)NC(=O)c1[nH]nc2c1CC1C3CCc4cc(O)ccc4C3CC[C@]21C (some centres unmarked) [compound 857, 2-Hydroxy-6a-methyl-4b,5,6,6a,8,10,10a,10b,11,12-decahydro-7,8-diaza-pentaleno[2,1-a]phenanthrene-9-carboxylic acid isopropyl amide] | – | – | – | 57 | 0.3 | –
C[C@]12CCC3c4ccc(OS(N)(=O)=O)cc4CCC3C1CC(C#N)C2=O (some centres unmarked) [compound 209] | – | 10000 | – | 71 | 18 | 73%
CC(C)(C)/C=C1\CC2C3CCc4cc(O)ccc4C3CC[C@]2(C)C1=O (some centres unmarked) [compound 748] | – | – | – | 82 | 31 | –
CC(C)Cn1ncc2c1[C@@]1(C)CCC3c4ccc(O)cc4CCC3C1C2 (some centres unmarked) [compound 813] | 70 | – | 44 | – | – | –
COC(=O)C1(CN2C(=O)c3ccccc3C2=O)CC2C3CCc4cc(O)ccc4C3CC[C@]2(C)C1=O (some centres unmarked) [compound 780] | – | – | – | 71 | 17 | –
CCN(C)C(=O)CC1CC2C3CCc4cc(O)ccc4C3CC[C@]2(C)C1=O (some centres unmarked) [compound 741] | – | – | – | 79 | 5 | –
CC(C)NC(=O)C1CC2C3CCc4cc(O)ccc4C3CC[C@]2(C)[C@H]1O (some centres unmarked) [compound 801] | 70 | – | -15 | – | – | –
COC(=O)C1CC2C3CCc4cc(O)ccc4C3CC[C@]2(C)[C@H]1O (some centres unmarked) [compound 572] | – | – | – | 63 | 2 | –
C[C@]12CCC3c4ccc(O)cc4CCC3C1CC(Cc1cccnc1)[C@@H]2O (stereo in doubt) [compound 542, 13-Methyl-16-pyridin-3-ylmethyl-7,8,9,11,12,13,14,15,16,17-decahydro-6H-cyclopenta[a]phenanthrene-3,17-diol] | – | – | – | 87 | 11 | –
CN1CCN(C(=O)c2[nH]nc3c2CC2C4CCc5cc(O)ccc5C4CC[C@]32C)CC1 (some centres unmarked) [compound 897] | 50 | – | -0.7 | – | – | –
Cc1cnc(CNC(=O)C2CC3C4CCc5cc(O)ccc5C4CC[C@]3(C)[C@H]2O)cn1 (some centres unmarked) [compound 803] | – | – | – | 85 | -18 | –
